Literature values, collected in US7432380B2, “Crystalline form of Fluvastatin sodium” (Ciba Specialty Chemicals Corp., priority 2003, dated 2008).

Conditions: relative air humidity of surrounding atmosphere; from WO-A-03/13512

air humidity of atmospheres in which the form is stable: up to 90%
SMILES: CC(C)n1c(/C=C/[C@H](O)C[C@H](O)CC(=O)[O-])c(-c2ccc(F)cc2)c2ccccc21.[Na+] [Form F]
